Laboratory results from patent US20260226402A1, “IMPROVED MICROBIAL GROWTH MEDIA” (Becton, Dickinson and Company, priority 2023, published 2026).

Experiments:
Candida glabrata = experiment: TTD testing with varied iron and O2 (Example 2); format: cell-based
Procedure: (§1) TTD testing was performed using 28 organisms with a target CFU of 10-100 in blood volumes of 0 or 0.5 mL, organism dependent, 3 mL, and 10 mL. The organisms tested are illustrated in FIG. 20. Four different concentrations of iron provided as ferric ammonium citrate (0 g/L, 0.01 g/L, 0.035 g/L, and 0.06 g/L) in the media otherwise as described in Example 1, and three different concentrations of oxygen (47%, 54%, and 60%) were tested. FIG. 21 illustrates the combination of conditions tested. The testing was run in replicates of three. Prior to the day of testing, the bottles were racked and labeled, and the organisms were sub-cultured accordingly. Each organism to be tested was grown overnight on an appropriate plated medium. Each organism was carefully checked for purity. […] The organism is then re-cultured. 0.1 mL of the final organism dilution was dispensed and spread on the appropriate agar for plate counts. Using aseptic technique, each bottle containing 30 ml of microbial growth media was amended with 0, 0.5, 3, or 10 mL of bagged human blood using the appropriate syringe and needle. Paired sets were inoculated with blood from the same donor unit at the same time. The bottles were then inoculated with 0.1 mL of the appropriate organism. After inoculation, the bottles were loaded onto a BACTEC FX instrument using a standard protocol length of 120 hours. Paired bottles were entered into the FX at the same time in adjacent positions. […] The data from each experiment was organized for statistical testing via a general linear model analysis of variance (ANOVA). Blood volumes of 0 or 0.5, 3, and 10 mL were recoded as 0, 3, and 10 mL to help balance the design. Additional models were assessed holding the blood volume constant. FIG. 56 illustrates the results of the ANOVA analyzing the effects of the tested conditions on TTD. FIG. 57 illustrates the results of the ANOVA parameter estimates and prediction equation. There was an expectation that only the yeast category would show a significant effect with the iron addition. Other categories were monitored to ensure no adverse effects.

Candida albicans = experiment: TTD testing with varied iron and O2 (Example 2); format: cell-based
Procedure: as §1

[1] = system: yeast and other microorganisms
Procedure: as §1

[2] = iron 0, 0.01, 0.035, 0.06 g/L tested

Compound | optimal iron concentration for TTD (Candida glabrata; [2]) | effect on TTD of increasing iron concentration in the media (Candida glabrata; iron from 0 to 0.06 g/L) | optimal iron concentration for TTD (Candida albicans; [2]) | effect on TTD of increasing iron concentration in the media (Candida albicans; iron from 0 to 0.06 g/L) | optimal iron concentration for TTD [1, 2] | effect on TTD of increasing iron concentration in the media ([1]; iron from 0 to 0.06 g/L, blood 0/0.5, 3, 10 mL) | effect of iron on TTD, ANOVA result ([1]; yeast category, general linear model ANOVA) | optimal gaseous headspace O2 concentration for TTD (Candida glabrata; 47%, 54%, 60% O2 tested) | effect on TTD of increasing oxygen concentration in headspace gas (Candida glabrata; from 47% to 60% O2) | optimal gaseous headspace O2 concentration for TTD (Candida albicans; 47%, 54%, 60% O2 tested) | effect on TTD of increasing oxygen concentration in headspace gas (Candida albicans; from 47% to 60% O2) | optimal gaseous headspace O2 concentration for TTD [1] | effect on TTD of increasing oxygen concentration in headspace gas ([1]; from 47% to 60% O2)
ferric ammonium citrate [iron] | about 0.035 g/L | decreased the TTD | about 0.035 g/L | decreased the TTD | about 0.035 g/L | decreased the TTD | lowers the TTD of yeasts | – | – | – | – | – | –
O=O [oxygen] | – | – | – | – | – | – | – | about 54% | decreased the TTD | about 54% | decreased the TTD | about 54% | decreased the TTD
